Test system: MCT-induced PAH
Assay: Monocrotoline (MCT)-induced model of pulmonary arterial hypertension (PAH) in rats
Type: in vivo, rat
Conditions: day 28, oral BID, NTP42 and TP20 0.25 mg/kg/dose, Sildenafil 50 mg/kg/dose
Procedure: FIGS. 19-23 show the efficacy of NTP42 in the monocrotoline (MCT)-induced model of pulmonary arterial hypertension (PAH) in rats. In brief, male Wistar/Kyoto rats were given a single dose of MCT (60 mg/kg, subcutaneously) and then treated with twice daily doses (oral dosing) for 28 days with either the drug vehicle, the test article NTP42 (0.25 mg/kg/dose, BID) or with the reference compounds Sildenafil (50 mg/kg/dose, BID) or TP20 (0.25 mg/kg/dose, BID). As a control, a group of rats were left untreated, i.e., no MCT or therapeutic drugs. At Day 28, post-MCT induction, rats were anaesthetised for cardiac surgery & hemodynamic parameters recorded. Thereafter, the trachea, heart & lungs were removed en masse, the wet weights of the heart & lungs recorded and then the lungs were harvested, fixed and processed for histopathology.
Aperio's ImageScope was used to analyze the digitally scanned H&E stained lung sections, where 10 random squares (approx. size or each square=1×10^6 μm^2) per lower, middle and upper section of lung tissue were selected for analysis. Within each square, all blood arterioles (complete arterioles within each square and those touching the right & bottom were assessed but not the left or top of the squares) were measured in ImageScope for luminal and total vessel diameter where the ratio of lumen to total vessel diameter was determined for each arteriole.
FIGS. 24-27 show the effect of the test articles on the mean (±S.E.M.) lumen: total vessel diameter ratio for all arterioles (Total) and the arterioles categorized by size: small, <50 μm total diameter; medium, 50-100 μm and large, >100 μm.
FIG. 27 presents data representing the mean (±SEM) lumen: total vessel diameter ratio for large arterioles (>100 μm).

For `CCCc1nn(C)c2c(=O)[nH]c(-c3cc(S(=O)(=O)N4CCN(C)CC4)ccc3OCC)nc12` [Sildenafil, reference compound], the “lumen: total vessel diameter ratio versus animals treated with MCT-alone” value was “significantly increased”.

Reference: patent US10966994B2, “Thromboxane receptor antagonists” (ATXA THERAPEUTICS LIMITED, priority 2015, dated 2021)
